# Read-outs that look alike come from different tables or passages of the source.
# Tests used:
# [1] = Stability against deposition of precipitates (visual judgement of the stored processing composition); format: physicochemical; set-up: key: the level of conspicuous precipitation was xx; the level of apparent precipitation was x; the level of slight precipitation was Δ; the level of no precipitation but clouding was ◯; the level of complete transparency with neither clouding nor precipitation was ◯◯
# [2] = Solubility at the preparation of the additive composition for a fixing solution; format: physicochemical; conditions: Example 5 additive composition, dissolution aid none
# [3] = Example 1 concentrated color developing composition, 15 mmol added, glass bottle, 4 weeks at room temperature
# [4] = Example 1 concentrated color developing composition, 15 mmol added, glass bottle, 4 weeks at −5° C.
# [5] = Example 2 color developing composition with increased developing agent, 25 mmol added, 4 weeks at room temperature
# [6] = Example 2 color developing composition with increased developing agent, 25 mmol added, 4 weeks at −5° C.
# [7] = Example 3 fixing composition, 5 mmol added, 4 weeks at room temperature
# [8] = Example 3 fixing composition, 5 mmol added, 4 weeks at −5° C.
# [9] = Example 4 color developing composition for color negative film, 15 mmol added, 4 weeks at room temperature
# [10] = Example 4 color developing composition for color negative film, 15 mmol added, 4 weeks at −5° C.
# [11] = Example 5 additive composition, compound 70 mmol, dissolution aid none, −5° C.
"Evaluation of Deposition (room temperature) [1, 3]","Evaluation of Deposition (−5° C.) [1, 4]","Evaluation of Deposition (room temperature) [1, 5]","Evaluation of Deposition (−5° C.) [1, 6]","Evaluation of Deposition (room temperature) [1, 7]","Evaluation of Deposition (−5° C.) [1, 8]","Evaluation of Deposition (room temperature) [1, 9]","Evaluation of Deposition (−5° C.) [1, 10]","Evaluation of Deposition (−5° C.) [1, 11]",Solubility at the Preparation of Solution ([2]; compound 70 mmol),"Evaluation of Deposition (−5° C.) ([1]; Example 5 additive composition, compound 140 mmol, dissolution aid none, −5° C.)",Solubility at the Preparation of Solution ([2]; compound 140 mmol),SMILES,Evaluation of Deposition (room temperature) [1],Evaluation of Deposition (−5° C.) [1]
◯◯,◯◯,◯◯,◯◯,◯◯,◯◯,◯◯,◯◯,◯◯,Completely,–,–,O=S(=O)([O-])CCNc1nc(NCC(O)CO)nc(Nc2ccc(Nc3nc(NCCS(=O)(=O)[O-])nc(NCC(O)CO)n3)cc2)n1.[Na+].[Na+] (centres unmarked) [Compound A-2],–,–
◯◯,◯◯,◯◯,◯◯,◯◯,◯◯,◯◯,◯◯,◯◯,Completely,◯◯,Completely,O=S(=O)([O-])CCNc1nc(NCC(O)CO)nc(Nc2cccc(Nc3nc(NCCS(=O)(=O)[O-])nc(NCC(O)CO)n3)c2)n1.[Na+].[Na+] (centres unmarked) [Compound A-3],–,–
–,–,–,–,–,–,–,–,–,–,–,–,COc1cc(Nc2nc(NCCS(=O)(=O)[O-])nc(NCC(O)CO)n2)c(OC)cc1Nc1nc(NCCS(=O)(=O)[O-])nc(NCC(O)CO)n1.[Na+].[Na+] (centres unmarked) [Compound A-7],◯◯,◯
–,–,–,–,–,–,–,–,–,–,–,–,CC(CO)Nc1nc(NCC(O)CO)nc(Nc2cc(Nc3nc(NCC(O)CO)nc(NC(C)CO)n3)cc(S(=O)(=O)[O-])c2)n1.[Na+] (centres unmarked) [Compound A-23],◯◯,◯◯ and ◯

# From patent US6753425B2, “Photographic processing composition containing bistriazinyl arylenediamine derivative” (Fuji Photo Film Co., Ltd., priority 2000, dated 2004)
